Measurements published in US7256209B2, “Pyrazole derivatives and diabetic medicine containing them” (Ajinomoto Co., Inc., priority 2000, dated 2007).

Legend:
male Wistar rats [1] = assay: Activity on rat's sugar urine excretion; assay type: in vivo; details: for The amount of excreted glucose in urine: 100 mg/kg oral, urine collected 24 hours, per day and individual; for activity on urinary glucose excretion as compared to Example 35 of WO01/16147 (in words): compared to Referential Example 1, Table 2; for activity on urinary glucose excretion (in words): oral administration, rat
Method: 5-week old male Wistar rats (purchased from Charles River Japan, Inc.) were used in the experiment after they were housed in a metabolic cage for about one week in advance. The test compounds were suspended in olive oil and 20 mg/ml solution was prepared so that the dosage given per 1 kg of the weight of the rats was 5 ml.
After the rats were not fed for 4 hours, the test compounds were orally administered to them at 11 a.m. Their urine was collected, from that taken just after the administration to that taken 24 hours after the administration and its volume was measured. Then, the concentration of glucose in urine was measured by glucose oxidase method and urinary glucose excreted per a day and an individual was calculated.

male Wistar rats [2] = assay: Activity on rat's sugar urine excretion; assay type: in vivo; details: for The amount of excreted glucose in urine: urine collected 24 hours, per day and individual
[3] = system: Renal brush border membrane glucose uptake; assay: Inhibiting activity on renal brush border membrane glucose uptake; assay type: biochemical; details: rat renal brush border membrane, sodium-dependent 14C-D-glucose uptake
Method: The test compound was dissolved in 100 mM Mannitol-10 mM HEPES/Tris (pH 7.4) and solutions having various concentrations were prepared.
Renal brush border membrane was prepared from a rat kidney and the solutions of the test compounds were added thereto and the product was incubated at 37° C. for 30 minutes. Then ^14C-D-glucose was added and the mixture was incubated for 1 minute. After tie reaction of glucose uptake was stopped by a solution containing 1 mM of phloridzin, the activity of ^14C-D-glucose on ^14C was measured by a liquid scintillation counter. The intensity of inhibition was calculated by subtracting the amount of taken glucose that is independent on sodium from the amount of taken glucose of the object samples.

| Compound | The amount of excreted glucose in urine (male Wistar rats [1]) [mg] | activity on urinary glucose excretion as compared to Example 35 of WO01/16147 (in words) (male Wistar rats [1]) | activity on urinary glucose excretion (in words) (male Wistar rats [1]) | also measured |
| --- | --- | --- | --- | --- |
| COC(=O)OC[C@H]1O[C@@H](Oc2nn(C(C)C)c(C)c2Cc2ccc(C)c(F)c2)[C@H](O)[C@@H](O)[C@@H]1O [Example Compound 14, 4′-[(3′-fluoro-4′-methylphenyl)methyl]-1′-isopropyl-5′-methyl-1H-pyrazole-3′-O-(6-carbomethoxy)-β-D-glucopyranoside] | 918 | much higher activity | particularly high activity |  |
| COC(=O)OC[C@H]1O[C@@H](Oc2nn(C(C)C)c(C)c2Cc2ccc(OC)c(F)c2)[C@H](O)[C@@H](O)[C@@H]1O [Example Compound 10, 4′-[(3′-fluoro-4′-methoxyphenyl)methyl]-1′-isopropyl-5′-methyl-1H-pyrazole-3′-O-(6-carbomethoxy)-β-D-glucopyranoside] | 734 | much higher activity | particularly high activity |  |
| CCc1ccc(Cc2c(O[C@@H]3O[C@H](COC(=O)OC)[C@@H](O)[C@H](O)[C@H]3O)nn(C(C)C)c2C)cc1 [Example Compound 16, 4′-[(4-ethylphenyl)methyl]-1′-isopropyl-5′-methyl-1H-pyrazole-3′-O-(6-carbomethoxy)-β-D-glucopyranoside] | 598 | much higher activity | particularly high activity | The amount of excreted glucose in urine (male Wistar rats [2]; 3 mg/kg oral): 28 mg; The amount of excreted glucose in urine (male Wistar rats [2]; 10 mg/kg oral): 263 mg; The amount of excreted glucose in urine (male Wistar rats [2]; 30 mg/kg oral): 294 mg; activity on urinary glucose excretion (in words) (male Wistar rats [2]; orally administered in lower doses such as 30 mg/kg or lower): still has high activity |
| CCc1ccc(Cc2c(O[C@@H]3O[C@H](C(=O)O)[C@@H](O)[C@H](O)[C@H]3O)n[nH]c2C(F)(F)F)cc1 [Example Compound 2, 4-((4-ethylphenyl)methyl)-5-(trifluoromethyl)-1H-pyrazole-3-yl-O-β-D-glucopyranoside uronic acid] |  |  |  | Inhibition intensity (concentration of the test compounds) ([3]; 100 μM test compound): 30% (100 μM) |
| CSc1ccc(Cc2c(O[C@@H]3O[C@H](CO)[C@@H](O)[C@H](O)[C@H]3O)n[nH]c2C(F)(F)F)cc1 [Example Compound 1, 4-((4-methylthiophenyl)methyl)-5-(trifluoromethyl)-1H-pyrazole-3-O-β-D-glucopyranoside] |  |  |  | Inhibition intensity (concentration of the test compounds) ([3]; 10 μM test compound): 84% (10 μM) |
| CCc1ccc(Cc2c(O[C@@H]3O[C@H](COC(=O)OC)[C@@H](O)[C@H](O)[C@H]3O)nn(-c3ccccc3)c2C(F)(F)F)cc1 [Example Compound 8, 4′-[(4′-ethylphenyl)methyl]-1′-phenyl-5′-trifluoromethyl-1H-pyrazole-3′-O-(6-carbomethoxy)-β-D-glucopyranoside] | 4.1 |  |  |  |
| Cc1[nH]nc(O[C@@H]2O[C@H](CO)[C@@H](O)[C@H](O)[C@H]2O)c1Cc1ccc(OC(C)C)cc1 [Referential Example Compound 1, 4-[(4-isopropoxyphenyl)methyl]-5-methyl-1H-pyrazole-3-O-β-D-glucopyranoside, reference compound] | 14 |  |  |  |
| CCc1ccc(Cc2c(O[C@@H]3O[C@H](COC(=O)OC)[C@@H](O)[C@H](O)[C@H]3O)nn(Cc3ccccc3)c2C(F)(F)F)cc1 [Example Compound 4, 4′-[(4′-ethylphenyl)methyl]-1′-benzyl-5′-trifluoromethyl-1H-pyrazole-3′-O-(6-carbomethoxy)-β-D-glucopyranoside] | 27 |  |  |  |
| CCc1ccc(Cc2c(O[C@@H]3O[C@H](COC(=O)OC)[C@@H](O)[C@H](O)[C@H]3O)nn(Cc3ccc(OC)cc3)c2C(F)(F)F)cc1 [Example Compound 6, 4′-[(4′-ethylphenyl)methyl]-1′-[(4′-methoxyphenyl)methyl]-5′-trifluoromethyl-1H-pyrazole-3′-O-(6-carbomethoxy)-β-D-glucopyranoside] | 59 |  |  |  |
